Literature values as cited in patent US5229134A, “Pharmaceutical compositions” (Laboratories Smith Kline & French, priority 1989, dated 1993).

Conditions: plasma levels

In the case of `CN/C(=N/CCSCc1nc[nH]c1C)NC#N` [cimetidine], the “therapeutically effective concentration in plasma” value is given as 0.5 mg/L.
